Test results published in ChEMBL document CHEMBL1201862, “PubChem BioAssay data set” (2004).
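Where inhibition never reached the appropriate level, the endpoint shown equals the highest concentration tested. Otherwise, values were interpolated linearly from a five-concentration, 48-hour dose response in 96-well plates. The concentration for 50% growth inhibition is given as GI50.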 The source made the active and inactive calls. Cut-off read from the data, not from the text of the source: active = GI50 up to about 1.1 µM and inactive = higher.

Columns and labels:
Experiment in all cases: NCI anticancer screen, dose series, 48 h
786-0 = test system: 786-0
ACHN = test system: ACHN
CCRF-CEM = test system: CCRF-CEM
HT-29 = test system: HT-29
IGROV-1 = test system: IGROV-1
KM12 = test system: KM12
M14 = test system: M14
MOLT-4 = test system: MOLT-4
Malme-3M = test system: Malme-3M
NCI-H460 = test system: NCI-H460
OVCAR-8 = test system: OVCAR-8
PC-3 = test system: PC-3
RPMI-8226 = test system: RPMI-8226
RXF 393 = test system: RXF 393
SK-MEL-2 = test system: SK-MEL-2
SK-OV-3 = test system: SK-OV-3
SR = test system: SR
SW-620 = test system: SW-620
TK-10 = test system: TK-10
UO-31 = test system: UO-31

Measured: GI50

CCOC(=O)C(C)(C)C(O)C(C)C (stereo not given)
inactive: 786-0 > 100 µM | ACHN > 100 µM | CCRF-CEM > 100 µM | HT-29 > 100 µM | IGROV-1 > 100 µM | KM12 > 100 µM | M14 > 100 µM | MOLT-4 > 100 µM | Malme-3M > 100 µM | NCI-H460 > 100 µM | OVCAR-8 > 100 µM | PC-3 > 100 µM | RPMI-8226 > 100 µM | RXF 393 > 100 µM | SK-MEL-2 > 100 µM | SK-OV-3 > 100 µM | SR > 100 µM | SW-620 > 100 µM | TK-10 > 100 µM | UO-31 > 100 µM
